Assay results taken from a melting point compilation (Tetko et al.).

Details: a range is the spread between reports

Row | SMILES | melting point [°C]
1 | O=NN1CN2CN(C1)CN(N=O)C2 | 204 to 207
2 | O=C(O)c1cccnc1 | 237 to 238
3 | O=C(c1ccccc1)c1ccccn1 | 42 to 43
4 | O=[N+]([O-])c1ccccc1Br | 42 to 43
5 | OCCOc1ccc2ccccc2c1 | 74 to 76.7
6 | Cc1ccc(Cc2ccc(C)cc2)cc1 | 28 to 29
7 | CON(C)C(=O)Nc1ccc(Cl)c(Cl)c1 | 93 to 93.5
8 | CCNC(=O)NCC | 110 to 112
9 | CCCCSC | -98 to -97.8
10 | CC(C(=O)O)c1ccc(N2Cc3ccccc3C2=O)cc1 (stereo not given) | 212 to 214
11 | CC(C)S | -131 to -130
12 | FC(F)F | -160 to -155
13 | CCOC(=O)c1ccc(C(=O)OCC)cc1 | 44 to 45
14 | O=C(C=Cc1cccc([N+](=O)[O-])c1)c1ccccc1 | 146
15 | OC[C@@H](O)[C@@H](O)[C@@H](O)CO | 102 to 103
16 | Cc1cc(C)nc(N)n1 | 152 to 153
17 | CCCS | -113
18 | CCCCCCCCCCCCCCCC(=O)OCC(COC(=O)CCCCCCCCCCCCCCC)OC(=O)CCCCCCCCCCCCCCC | 62 to 66.5
19 | Cc1cc(C)[nH]n1 | 107 to 108
20 | CC1(C)CCCCC1 | -33.3 to -33
21 | CCCCCCCCC(=O)O | 10 to 12.3
22 | C=CCI | -99.3 to -99
23 | Brc1c(Br)c(Br)c(Oc2c(Br)c(Br)c(Br)c(Br)c2Br)c(Br)c1Br | 305 to 306

Row | SMILES | melting point [°C]
24 | CCCOC=O | -93 to -92.9
25 | O=C(O)c1cc(I)cc(I)c1O | 231 to 236
26 | Cc1ccc(OCC(=O)O)cc1 | 140 to 141
27 | S=C1NCCS1 | 105 to 106
28 | Nc1ccc2ccccc2c1 | 112 to 113
29 | CCCCC(C)CCCC | -88 to -87.7
30 | ClC1c2ccccc2CCc2ccccc21 | 106 to 107
31 | NC(=O)c1cccnc1 | 130
32 | CCc1cc(C(C)(C)C)c(O)c(C(C)(C)C)c1 | 43 to 44
33 | N#Cc1cccc([N+](=O)[O-])c1 | 116 to 117
34 | CC1(O)CCCCC1 | 25 to 26
35 | Oc1c(Br)cc(Br)c2cccnc12 | 196 to 201
36 | CCOC=O | -81 to -79.6
37 | CC(C)(C)C1=CC(=O)C=C(C(C)(C)C)C1=O | 66 to 67
38 | Cc1cc(C)c(CC(=O)O)c(C)c1 | 168 to 169
39 | C=C(C)C#N | -36 to -35.8
40 | Oc1ccncc1 | 145 to 150
41 | C1CCCCCCCCCCC1 | 59 to 61
42 | SCc1ccccc1 | -30 to -29
43 | c1ccc(-c2cnc(-c3ccc(-c4ncc(-c5ccccc5)o4)cc3)o2)cc1 | 242 to 245
44 | CN(C)c1cccc2c(S(N)(=O)=O)cccc12 | 220
45 | O=C1c2ccccc2C(=O)N1CCBr | 82 to 82.5
46 | CCCOC(=O)c1ccc(N)cc1 | 74 to 75

Row | SMILES | melting point [°C]
47 | Oc1ccc(C(c2ccc(O)cc2)(C(F)(F)F)C(F)(F)F)cc1 | 160 to 162
48 | Nc1ccc(Cl)cc1Cl | 61 to 63.5
49 | c1ccc(SSc2ccccc2)cc1 | 60 to 62
50 | Cc1cc(N)ccc1Br | 79 to 81
51 | O=[N+]([O-])c1ccco1 | 30 to 31
52 | CC(C)c1ccc(CO)cc1 | 27 to 28
53 | Cc1cc(O)ccc1Cl | 66 to 67
54 | C(CC1CCNCC1)CC1CCNCC1 | 66 to 67.1
55 | O=[N+]([O-])c1ccc(O)c(F)c1 | 119 to 121
56 | O=Cc1ccc(Cl)cc1 | 46 to 48.5
57 | O=C(O)c1cc2ccccc2o1 | 192 to 194
58 | CC(Oc1ccccc1)C(=O)O (stereo not given) | 118
59 | O=S(c1ccccc1)c1ccccc1 | 70 to 71.2
60 | Cc1ccc(Cl)c(Cl)c1 | -15.2 to -15
61 | O=C1CCCCCCCCCCCCCCO1 | 32 to 35
62 | O=[N+]([O-])c1ccc(CCl)cc1 | 71 to 73
63 | C=C(C)CC | -138 to -137
64 | CC(=O)Nc1ccc(Cl)cc1 | 178 to 179
65 | CNc1ccc(Cl)cc1C(=O)c1ccccc1 | 94 to 96
66 | c1ccc2c(c1)ccc1cc3c(ccc4ccccc43)cc12 | 266 to 270
67 | NCCN1CCOCC1 | 24 to 25.6
68 | COC(=O)C(Cl)(Cl)Cl | -18 to -17.5
69 | Cc1c(O)cccc1O | 118 to 120

Row | SMILES | melting point [°C]
70 | c1ccc(C(=C(c2ccccc2)c2ccccc2)c2ccccc2)cc1 | 224 to 225
71 | O=C1CCc2ccccc21 | 40 to 42
72 | CC(C)=CC(=O)O | 67 to 69.5
73 | CCC(S)CC | -111
74 | N#Cc1ccc(C=O)cc1 | 100 to 102
75 | COC(=O)CS(=O)(=O)c1ccccc1 | 30 to 35
76 | NNC(=O)Nc1ccccc1 | 124 to 128
77 | Cc1ccc(Cl)c(N)c1 | 29.5 to 32
78 | N#CN | 44 to 45.6
79 | CCOC(=O)n1ccn(C)c1=S | 124
80 | CCCCCCC=O | -43.3 to -43
81 | CC(C)(C)c1ccc(O)c(O)c1 | 54.3 to 55
82 | CC(C)c1cccc(C(C)C)c1 | -63.1 to -63
83 | O=C(O)CCOc1ccccc1 | 97.5 to 98
84 | Cc1cc(C(=O)O)ccc1N | 170
85 | O=[N+]([O-])c1ccc(O)cc1 | 112 to 115
86 | CCOCCOC(C)=O | -62 to -61
87 | CS(=O)(=O)OCCCCOS(C)(=O)=O | 116
88 | C=CCCCCCCCCCCCCCC | 4 to 4.1
89 | COc1ccc(C=CC(=O)c2ccccc2)cc1 | 75 to 79
90 | CCC(C)(C)Cl | -74 to -73
91 | Cc1cccc(Br)c1 | -40 to -39.8
92 | O=C(O)c1ccccc1[N+](=O)[O-] | 146 to 148

Row | SMILES | melting point [°C]
93 | O=C1C=CC(=O)C=C1 | 114 to 116
94 | CCCC(C)Br (stereo not given) | -96 to -95.5
95 | OCc1ccccc1Cl | 70 to 73
96 | CC1(O)CCC(C(C)(C)O)CC1 (stereo not given) | 158
97 | O=[N+]([O-])c1cccc(S(=O)(=O)Cl)c1 | 60.9 to 61
98 | C=C(C)C(=O)OC | -48 to -47.5
99 | O=C(O)CCCCC(=O)O | 152 to 153
100 | O=C(Oc1ccc2ccccc2c1)c1ccccc1 | 105 to 107
101 | COc1ccc([N+](=O)[O-])cc1N | 117 to 118
102 | CCCCCCCCCCCCCCCC(=O)O | 61 to 62.5
103 | Cc1ccc2cc3c(ccc4ccccc43)c3c2c1CC3 | 180
104 | COc1ccc(C=O)c(C(=O)O)c1OC | 147 to 150
105 | Nc1ccccc1N | 101 to 102
106 | Brc1cccc(I)c1 | -9.3 to -9
107 | N#Cc1cccnc1 | 50 to 51
108 | O=C(O)C(Cl)Br (stereo not given) | 27 to 31.5
109 | CCN=c1nc(Cl)[nH]c(=NC(C)C)[nH]1 | 172 to 177
110 | CCCCCCCCCCCCCCCCCCCCCCCCC | 53 to 54
111 | CNC(=O)NC(C)=O | 178 to 180
112 | O=C(O)CI | 81 to 82.5
113 | CCCCCCCCCCCBr | -10 to -9
114 | COc1ccc([N+](=O)[O-])c(OC)c1 | 74 to 76.5
115 | CCc1ccccc1CC | -31.2 to -31
